Calls of active or inactive are those of the source. The calls are words filed in the database; no cut-off is given here.
Columns and labels:
[1] = Toxicity in Balb/c nude mouse xenografted with human A549 cells assessed as reduction in body weight at 7.5 to 15 mg/kg, ip administered for 14 days; type: organism-based; conditions: in vivo, 336 h, dose 7.5-15 mg/kg, time 14 day
A549 [2] = test: Induction of apoptosis in human A549 cells assessed as viable cells at 10 uM incubated for 24 hrs by Annexin V-FITC/PI staining based flow cytometric analysis (reference value: 96.29 %); type: functional; conditions: read-out: Activity
A549 [3] = test: Induction of apoptosis in human A549 cells assessed as decrease in Bcl2 expression at 10 to 30 uM by Western blot analysis; type: functional, cell-based; conditions: dose 10-30 µM
NCI-H460 [4] = test: Cell cycle arrest in human NCI-H460 cells assessed as downregulation of CDK4 expression at 10 to 30 uM by Western blot analysis; type: functional, cell-based; conditions: dose 10-30 µM
A549 [5] = test: Cell cycle arrest in human A549 cells assessed as downregulation of CDK4 expression at 10 to 30 uM by Western blot analysis; type: functional, cell-based; conditions: dose 10-30 µM
A549 [6] = test: Cell cycle arrest in human A549 cells assessed as accumulation of cells at G1 phase at 10 uM incubated for 24 hrs by PI staining based flow cytometric analysis (reference value: 56.42 +/- 1.36 %); type: functional
NCI-H460 [7] = test: Induction of autophagy in human NCI-H460 cells assessed as increase in LC3-II expression at 10 to 30 uM incubated for 24 hrs by Western blot analysis; type: functional, cell-based; conditions: dose 10-30 µM
[8] = test system: Gefitinib-resistant A549/G cell; test: Inhibition of Akt/mTOR signaling pathway in human Gefitinib-resistant A549/G cell assessed as decrease in phosphorylated […] in presence of gefitinib by Western blot analysis; type: cell-based
A549 [9] = test: Antiproliferative activity against human A549 cells assessed as inhibition of cell proliferation in presence of temsirolimus by CCK8 assay; type: functional, cell-based
NCI-H460 [10] = test: Inhibition of Akt/mTOR signalling pathway in human NCI-H460 cells assessed as decrease in phosphorylated PRAS40 expression by Western blot analysis; type: cell-based; conditions: dose 10-30 µM
NCI-H460 [11] = test: Induction of autophagy in human NCI-H460 cells assessed as increase in fluorescence intensity of anti-LC3 incubated for 48 hrs by immunofluorescence staining based analysis; type: functional, cell-based; conditions: dose 10-30 µM
A549 [12] = test: Induction of apoptosis in human A549 cells assessed as upregulation of Bax expression at 10 to 30 uM by Western blot analysis; type: functional, cell-based; conditions: dose 10-30 µM
NCI-H460 [13] = test: Induction of apoptosis in human NCI-H460 cells assessed as early apoptotic cells at 30 uM incubated for 24 hrs by Annexin V-FITC/PI staining based flow cytometric analysis (reference value: 3.22 %); type: functional
A549 [14] = test: Inhibition of Akt/mTOR signaling pathway in human A549 cells assessed as decrease in mTOR expression in presence of temsirolimus by Western blot analysis; type: cell-based
NCI-H460 [15] = test: Cell cycle arrest in human NCI-H460 cells assessed as accumulation of cells at G1-S phase at 10 to 30 uM incubated for 24 hrs by PI staining based flow cytometric analysis; type: functional; conditions: dose 10-30 µM
NCI-H460 [16] = test: Induction of apoptosis in human NCI-H460 cells assessed as upregulation of cleaved caspase 3 expression at 10 to 30 uM by Western blot analysis; type: functional, cell-based; conditions: dose 10-30 µM
NCI-H460 [17] = test: Inhibition of Akt/mTOR signaling pathway in human NCI-H460 cells assessed as decrease in phosphorylated PRAS40 expression in presence of temsirolimus by Western blot analysis; type: cell-based
A549 [18] = test: Cell cycle arrest in human A549 cells assessed as downregulation of cyclin D1 expression at 10 to 30 uM by Western blot analysis; type: functional, cell-based; conditions: dose 10-30 µM
NCI-H460 [19] = test: Inhibition of Akt/mTOR signalling pathway in human NCI-H460 cells assessed as decrease in c-myc expression by Western blot analysis; type: cell-based; conditions: dose 10-30 µM
A549 [20] = test: Induction of apoptosis in human A549 cells assessed as necrotic cells at 10 uM incubated for 24 hrs by Annexin V-FITC/PI staining based flow cytometric analysis (reference value: 0.97 %); type: functional
A549 [21] = test: Induction of apoptosis in human A549 cells assessed as early apoptotic cells at 30 uM incubated for 24 hrs by Annexin V-FITC/PI staining based flow cytometric analysis (reference value: 0.44 %); type: functional
NCI-H460 [22] = test: Antiproliferative activity against human NCI-H460 cells assessed as inhibition of cell proliferation in presence of temsirolimus by CCK8 assay; type: functional, cell-based
A549 [23] = test: Inhibition of Akt/mTOR signalling pathway in human A549 cells assessed as decrease in phosphorylated P70 S6K expression by Western blot analysis; type: cell-based; conditions: dose 10-30 µM
NCI-H460 [24] = test: Induction of apoptosis in human NCI-H460 cells assessed as late apoptotic cells at 30 uM incubated for 24 hrs by Annexin V-FITC/PI staining based flow cytometric analysis (reference value: 4.15 %); type: functional
BGC-823 = test: Antiproliferative activity against human BGC-823 cells assessed as inhibition of cell proliferation at 3 to 300 uM incubated for 48 hrs by CCK8 assay; type: functional, cell-based; conditions: dose 3-300 µM
[25] = test system: Gefitinib-resistant A549/G cell; test: Inhibition of Akt/mTOR signaling pathway in human Gefitinib-resistant A549/G cell assessed as decrease in mTOR expression in presence of gefitinib by Western blot analysis; type: cell-based
NCI-H460 [26] = test: Induction of apoptosis in human NCI-H460 cells assessed as decrease in Bcl2 expression at 10 to 30 uM by Western blot analysis; type: functional, cell-based; conditions: dose 10-30 µM
NCI-H460 [27] = test: Induction of apoptosis in human NCI-H460 cells assessed as necrotic cells at 30 uM incubated for 24 hrs by Annexin V-FITC/PI staining based flow cytometric analysis (reference value: 0.68 %); type: functional
NCI-H460 [28] = test: Induction of apoptosis in human NCI-H460 cells assessed as viable cells at 10 uM incubated for 24 hrs by Annexin V-FITC/PI staining based flow cytometric analysis (reference value: 91.95 %); type: functional; conditions: read-out: Activity
A549 [29] = test: Induction of apoptosis in human A549 cells assessed as late apoptotic cells at 30 uM incubated for 24 hrs by Annexin V-FITC/PI staining based flow cytometric analysis (reference value: 2.29 %); type: functional

SMILES: N#C[Se]CCCNC(=O)c1cccnc1
- Activity [1]: Non-toxic
- viability at 10 µM (A549 [2]): 84.8%
- Activity (A549 [3]): Active
- Activity (NCI-H460 [4]): Active; G1 Phase Cell Cycle Arrest Observed
- Activity (A549 [5]): Active; G1 Phase Cell Cycle Arrest Observed
- Activity (A549 [6]): 75.43%
- Activity (NCI-H460 [7]): Active
- inhibition [8]: Active
- Activity (A549 [9]): Active
- inhibition (NCI-H460 [10]): Dose-dependent-effect; Inhibitory Ability Of Compound Is Comparable To Temsirolimus
- Activity (NCI-H460 [11]): Dose-dependent-effect
- Activity (A549 [12]): Active
- Activity (NCI-H460 [13]): 6.3%
- inhibition (A549 [14]): Active
- Activity (NCI-H460 [15]): Active
- Activity (NCI-H460 [16]): Active
- inhibition (NCI-H460 [17]): Active
- Activity (A549 [18]): Active; G1 Phase Cell Cycle Arrest Observed
- inhibition (NCI-H460 [19]): Dose-dependent-effect; Inhibitory Ability Of Compound Is Comparable To Temsirolimus
- Activity (A549 [20]): 3.03%
- Activity (A549 [21]): 4.58%
- Activity (NCI-H460 [22]): Active
- inhibition (A549 [23]): Dose-dependent-effect; Inhibitory Ability Of Compound Is Comparable To Temsirolimus
- Activity (NCI-H460 [24]): 13.81%
- Activity (BGC-823): inactive
- inhibition [25]: Active
- Activity (NCI-H460 [26]): Active
- Activity (NCI-H460 [27]): 5.22%
- viability at 10 µM (NCI-H460 [28]): 81.5%
- Activity (A549 [29]): 14.41%
